For series [1] the following is noted: cited from earlier work.
A short description of series [2]: Chemical stability of ALL00179 in 100% ddH2O donor solution. It is filed as physicochemical. As to conditions: for purity level after 72 hr: ALL00179 after 72 hr in ddH7O at RT; for initial purity (composition of ALL00179 sample): ALL00179 for 100% ddH2O donor solution. On the procedure:
ALL00179 was placed in 100% ddH2O donor solution to check chemical stability. The initial purity of ALL00179 was 94.7% ALL00179, 5.3% ALL00180, and 0% CBD. After 72 hr in ddH7O at RT, the purity level was determined to be 86.8% ALL00179, 13.2% ALL00180 and 0% CBD.

Series [3] can be described thus: Previous studies: permeation through intact skin (non-MN treated, 100% ddH2O donor solution). It is filed as in vitro ADME. On the procedure:
Likewise, short lag times were observed throughout the study for the ALL00179-treated skin. […] In this study, the total amount of CBD delivered from a 25 mg ALL00179-containing donor solution was 0.2±0.1 mg total CBD equivalents in the skin and 1.0±0.2 mg total CBD equivalents in the receiver solution after 48 hr. This accounts for approximately 4.8% of the total ALL00179 in the donor solution.

The format of series [4] is in vitro ADME. The note with it: ALL00179 added to human plasma; for Percent Prodrug and CBD at time (min) 0*: 0 min (approximately 1 minute of mixing and withdrawal); for Percent Prodrug and CBD at time (min) 5: 5 min; for Percent Prodrug and CBD at time (min) 10: 10 min; for Percent Prodrug and CBD at time (min) 20: 20 min; for Percent Prodrug and CBD at time (min) 30: 30 min; for Percent Prodrug and CBD at time (min) 60: 60 min; for Percent Prodrug and CBD at time (min) 120: 120 min. How it is done: Stability of the prodrug in human plasma was performed to monitor the conversion of ALL00179 to the monosubstituted form, ALL00180, and CBD. The molecular structure of ALL00180 and CBD are shown below: […]

Series [5] can be described thus: In vitro diffusion study through microneedle-treated full thickness Yucatan pig skin (flow-through diffusion cell). It is filed as in vitro ADME. As to conditions: ALL00179 100% ddH2O donor solution, end of 48 h diffusion study. The text has this: The purpose of the diffusion study was to determine whether microneedle (MN) treated skin would allow the rapid permeation of a water-soluble prodrug of CBD (ALL00179) compared to CBD.
Briefly, full thickness Yucatan pig (YP) skin was used to perform the microneedle studies. The average thickness of the YP skin was approximately 1.0±0.1 mm. A PermeGear flow-through (In-Line, Hellertown, Pa.) diffusion cell system was used for the skin permeation studies. One hundred microneedle insertions were made into the skin before mounting in the flow-through diffusion cell by treating the skin 20 times with an array containing 5 microneedles. Each cell was charged with 250 μl of either 318 mM CBD (n=4) or ALL00179 (n=5) and occluded with rubber stoppers. Ten percent ethanol in water was used as a receiver solution. Samples were collected at six-hour intervals for a total of 48 hours. (See FIG. 1 for the permeation profile.)

Series [6] is described as follows: Permeation from an optimized gel system of cannabidiol through intact dermatomed human skin. It is filed as in vitro ADME. As to conditions: optimized gel system of cannabidiol (2.5% w/w), dosed every 12 hr. From the text:
As a comparison, permeation from an optimized gel system of cannabidiol (2.5% w/w) through intact dermatomed human skin, dosed every 12 hr, gave a flux of 5.2 nmol/cm^2/h. The total CBD flux from ALLL00179 after MN treatment of full thickness Yucatan pig skin was 63.2±11.4 nmol/cm^2/h, resulting in a 12.2 fold enhancement of flux.

Where [7] appears, read: used in conjunction with microneedles.

Molecules are shown by their SMILES.

In the case of `O=C1CC[C@@]2(O)[C@H]3Cc4ccc(O)c5c4[C@@]2(CCN3CC2CC2)[C@H]1O5` [naltrexone], the naltrexone levels in series [1] (16% naltrexone hydrochloride gel, 6 healthy human volunteers, microneedle pretreatment) was 2.5 ± 1.1 ng/mL. For the same molecule, in series [1] (setting [7]), the “duration of steady state naltrexone concentrations” value was 48 h and the “time to steady state naltrexone concentrations” value is listed as “within two hours”.

On to `C=C(C)[C@@H]1CCC(C)=C[C@H]1c1c(OC(=O)C[N+](C)(C)C)cc(CCCCC)cc1OC(=O)C[N+](C)(C)C.[Cl-].[Cl-]` [ALL00179], for which, in series [2], the “purity level after 72 hr” value is recorded as 86.8% and the “initial purity (composition of ALL00179 sample)” value (“initial purity” below) stood at 94.7%. The “flux through intact skin” value in series [3] was “no flux”. Moreover, in series [4], the “Percent Prodrug and CBD at time (min) 0*” value stood at 9.2%; the “Percent Prodrug and CBD at time (min) 5” value is listed as 3.0%; the “Percent Prodrug and CBD at time (min) 10” value came out at 0.0%; the “Percent Prodrug and CBD at time (min) 20” value was found to be 0.0%. Also, in series [4], the “Percent Prodrug and CBD at time (min) 30” value was 0.0%; the “Percent Prodrug and CBD at time (min) 60” value came to 0.0%; the “Percent Prodrug and CBD at time (min) 120” value came out at 0.0%. Also, the “composition of the donor solutions at the end of the study” value (“composition of the donor solutions” below) in series [5] stood at 84.3±2.6%.

With `C=C(C)[C@@H]1CCC(C)=C[C@H]1c1c(O)cc(CCCCC)cc1O` [Cannabidiol], in series [2], the “purity level after 72 hr” value was found to be 0% and the “initial purity” value was 0%. For the same molecule, in series [3], the “drug detected in the skin” value is “none” and the “flux through intact skin” value is recorded as “no flux”. Also, the flux in series [6] came to 5.2 nmol/cm^2/h. In addition, in series [4], the “Percent Prodrug and CBD at time (min) 0*” value is on record as 4.7%; the “Percent Prodrug and CBD at time (min) 5” value stood at 30.2%; the “Percent Prodrug and CBD at time (min) 10” value is on record as 55.1%; the “Percent Prodrug and CBD at time (min) 20” value is 77.1%. For the same molecule, in series [4], the “Percent Prodrug and CBD at time (min) 30” value is 89.4%; the “Percent Prodrug and CBD at time (min) 60” value was 97.6%; the “Percent Prodrug and CBD at time (min) 120” value is reported as 100%. Moreover, the “composition of the donor solutions” value in series [5] is listed as 0%.

As to `C=C(C)[C@@H]1CCC(C)=C[C@H]1c1c(O)cc(CCCCC)cc1OC(=O)C[N+](C)(C)C` [ALL00180], in series [2], the “purity level after 72 hr” value turned out to be 13.2% and the “initial purity” value amounted to 5.3%. For the same molecule, in series [4], the “Percent Prodrug and CBD at time (min) 0*” value was 86.1%; the “Percent Prodrug and CBD at time (min) 5” value was 66.8%; the “Percent Prodrug and CBD at time (min) 10” value is 44.9%; the “Percent Prodrug and CBD at time (min) 20” value came out at 22.9%. Further, in series [4], the “Percent Prodrug and CBD at time (min) 30” value worked out at 10.6%; the “Percent Prodrug and CBD at time (min) 60” value was determined as 2.4%; the “Percent Prodrug and CBD at time (min) 120” value is recorded as 0.0%. Moreover, in series [5], the “composition of the donor solutions” value is 15.7±2.6%.

Source of the values: patent USRE47885E1, “Use of cannabidiol prodrugs in pharmaceutical compositions” (Zynerba Pharmaceuticals, Inc., priority 2009, dated 2020).
